# According to patent publication US20150313228A1, “SYNERGISTIC HERBICIDAL COMBINATIONS AND METHODS OF USE” (priority 2012, published 2015):
# Tests used:
# Format in all cases: in vivo
# Palmer amaranth [1] = assay: Pre-emergence application in Palmer amaranth under greenhouse conditions (Example 1); conditions: 18 days after application
# Text: (§1) The following testing protocol was employed to evaluate the pre-emergence application of herbicides and herbicide combinations as described in the following examples unless otherwise specified. The weed species to be treated were planted in 3.5 inch pots containing a 50:50 silt loam:redi-earth soil mix. Immediately after such planting (i.e., pre-emergence), herbicide was applied to the soil mix at the specified application rate using a track sprayer with a flat even nozzle type, 9501E nozzle size, and spray pressure of 165 kPa. All herbicides were incorporated into the germination zone with 0.25 inch of overhead irrigation three days after spraying. Additional sub-irrigation was provided to achieve adequate soil moisture for germination. After the incorporation of the herbicide(s), the pots were only overhead irrigated as needed. Throughout the test period, temperature was maintained from about 20° C. to about 30° C. and relative humidity was maintained at about 30%. The plants were rated visually and percentage of weed control was determined for each treatment at 19 days after herbicide application.
# (§2) Pre-emergence application of several herbicides and herbicide combinations was evaluated in Palmer amaranth under greenhouse conditions. The plants were rated visually and percentage of weed control was determined at 18 days after herbicide application. The herbicides and herbicide combinations evaluated are listed in Table 1-A below together with the corresponding percent control data. The data represent an average value (n=6).
# The results of the analysis are reported below in Table 1-B (dicamba+metribuzin), Table 1-C(acetochlor+metribuzin), and Table 1-D (acetochlor+dicamba).
# wild Proso millet = assay: Pre-emergence application in wild Proso millet under greenhouse conditions (Example 3); conditions: 16 days after application
# Text: as §1
# as §2, with “wild Proso millet” for “Palmer amaranth”, “16” for “18”, “3-A” for “1-A”
# The results of the analysis are reported below in Table 3-B (dicamba+metribuzin), Table 3-C (acetochlor+metribuzin), and Table 3-D (acetochlor+dicamba).
# ryegrass = assay: Pre-emergence application in ryegrass under greenhouse conditions (Example 6); conditions: 16 days after application
# Text: as §1
# as §2, with “ryegrass” for “Palmer amaranth”, “16” for “18”, “6-A” for “1-A”
# The results of the analysis are reported below in Table 6-B (dicamba+metribuzin), Table 6-C(acetochlor+metribuzin), and Table 6-D (acetochlor+dicamba).
# Johnsongrass = assay: Pre-emergence application in Johnsongrass under greenhouse conditions (Example 5); conditions: 16 days after application
# Text: as §1
# as §2, with “Johnsongrass” for “Palmer amaranth”, “16” for “18”, “5-A” for “1-A”
# The results of the analysis are reported below in Table 5-B (dicamba+metribuzin), Table 5-C(acetochlor+metribuzin), and Table 5-D (acetochlor+dicamba).
# sicklepod = assay: Pre-emergence application in sicklepod under greenhouse conditions (Example 4); conditions: 18 days after application
# Text: as §1
# as §2, with “sicklepod” for “Palmer amaranth”, “4-A” for “1-A”
# The results of the analysis are reported below in Table 4-B (dicamba+metribuzin), Table 4-C(acetochlor+metribuzin), and Table 4-D (acetochlor+dicamba).
# morning glory = assay: Pre-emergence application in morning glory under greenhouse conditions (Example 2); conditions: 18 days after application
# Text: as §1
# as §2, with “morning glory” for “Palmer amaranth”, “2-A” for “1-A”
# The results of the analysis are reported below in Table 2-B (dicamba+metribuzin), Table 2-C(acetochlor+metribuzin), and Table 2-D (acetochlor+dicamba).
# Palmer amaranth [2] = assay: Post-emergence application in Palmer amaranth under greenhouse conditions (Example 7); conditions: 24 days after application
# Text: (§3) The following testing protocol was employed to evaluate the post-emergence application of herbicides and herbicide combinations as described in the following examples unless otherwise specified. The weed species to be treated were planted in 3.5 inch pots containing redi-earth potting mix and grown under greenhouse conditions. When the weed species reached a height of about four inches, herbicide was applied at the specified application rate using a track sprayer with a flat even nozzle type, 9501E nozzle size, and spray pressure of 165 kPa. After the application of the herbicide(s), the pots were only sub-irrigated as needed. Throughout the test period, temperature was maintained from about 20° C. to about 30° C. and relative humidity was maintained at about 30%. The plants were rated visually and percentage of weed control was determined for each treatment at 15 to 21 days after herbicide application.
# as §2, with “Post-emergence” for “Pre-emergence”, “24” for “18”, “7-A” for “1-A”
# The results of the analysis are reported below in Table 7-B (glyphosate+dicamba), Table 7-C(glyphosate+metribuzin), and Table 7-D (dicamba+metribuzin).
# velvetleaf = assay: Post-emergence application in velvetleaf under greenhouse conditions (Example 8)
# Text: as §3
# as §2, with “Post-emergence” for “Pre-emergence”, “velvetleaf” for “Palmer amaranth”, “24” for “18”, “8-A” for “1-A”
# The results of the analysis are reported below in Table 8-B (glyphosate+dicamba), Table 8-C(glyphosate+metribuzin), and Table 8-D (dicamba+metribuzin).
smiles,measurement,setting,value
"CCOCN(C(=O)CCl)c1c(C)cccc1CC [Acetochlor, 2-chloro-N-(ethoxymethyl)-6′-ethyl-o-acetotoluidide]",PERCENT CONTROL,Palmer amaranth [1]; 840 g/ha,65.8%
same,PERCENT CONTROL,Palmer amaranth [1]; 1260 g/ha,90.8%
same,PERCENT CONTROL,wild Proso millet; 840 g/ha,74.2%
same,PERCENT CONTROL,wild Proso millet; 1260 g/ha,84.0%
same,PERCENT CONTROL,ryegrass; 840 g/ha,82.5%
same,PERCENT CONTROL,ryegrass; 1260 g/ha,86.7%
same,PERCENT CONTROL,Johnsongrass; 840 g/ha,94.8%
same,PERCENT CONTROL,Johnsongrass; 1260 g/ha,100.0%
same,PERCENT CONTROL,sicklepod; 840 g/ha,4.0%
same,PERCENT CONTROL,sicklepod; 1260 g/ha,5.8%
same,PERCENT CONTROL,morning glory; 840 g/ha,5.0%
same,PERCENT CONTROL,morning glory; 1260 g/ha,7.5%
"COc1c(Cl)ccc(Cl)c1C(=O)O [Dicamba, 3,6-dichloro-2-methoxy benzoic acid]",PERCENT CONTROL,Palmer amaranth [2]; 280 g/ha,100.0%
same,PERCENT CONTROL,Palmer amaranth [2]; 560 g/ha,100.0%
same,PERCENT CONTROL,Palmer amaranth [1]; 280 g/ha,88.3%
same,PERCENT CONTROL,Palmer amaranth [1]; 560 g/ha,84.2%
same,PERCENT CONTROL,wild Proso millet; 280 g/ha,43.3%
same,PERCENT CONTROL,wild Proso millet; 560 g/ha,74.2%
same,PERCENT CONTROL (ACTUAL),"velvetleaf; 280 g/ha, 24 days after application",82.0%
same,PERCENT CONTROL (ACTUAL),"velvetleaf; 560 g/ha, 24 days after application",95.0%
same,PERCENT CONTROL (ACTUAL),"velvetleaf; Table 8-D, velvetleaf, 24 days, dose 280 g/ha",82.0%
same,PERCENT CONTROL (ACTUAL),"velvetleaf; Table 8-D, velvetleaf, 24 days, dose 560 g/ha",95.0%
same,PERCENT CONTROL,ryegrass; 280 g/ha,31.7%
same,PERCENT CONTROL,ryegrass; 560 g/ha,56.7%
same,PERCENT CONTROL,Johnsongrass; 280 g/ha,71.7%
same,PERCENT CONTROL,Johnsongrass; 560 g/ha,83.3%
same,PERCENT CONTROL,sicklepod; 280 g/ha,42.0%
same,PERCENT CONTROL,sicklepod; 560 g/ha,84.0%
same,PERCENT CONTROL,morning glory; 280 g/ha,38.0%
same,PERCENT CONTROL,morning glory; 560 g/ha,81.7%
"CSc1nnc(C(C)(C)C)c(=O)n1N [Metribuzin, 4-amino-6-(1,1-dimethylethyl)-3-(methylthio)-1,2,4-triazin-5(4H)-one]",PERCENT CONTROL,Palmer amaranth [2]; 420 g/ha,20.0%
same,PERCENT CONTROL,Palmer amaranth [2]; 840 g/ha,26.0%
same,PERCENT CONTROL,Palmer amaranth [1]; 420 g/ha,100.0%
same,PERCENT CONTROL,Palmer amaranth [1]; 840 g/ha,100.0%
same,PERCENT CONTROL,wild Proso millet; 420 g/ha,100.0%
same,PERCENT CONTROL,wild Proso millet; 840 g/ha,100.0%
same,PERCENT CONTROL (ACTUAL),"velvetleaf; Table 8-C, velvetleaf, 24 days, dose 420 g/ha",22.0%
same,PERCENT CONTROL (ACTUAL),"velvetleaf; Table 8-C, velvetleaf, 24 days, dose 840 g/ha",68.0%
same,PERCENT CONTROL (ACTUAL),"velvetleaf; Table 8-D, velvetleaf, 24 days, dose 420 g/ha",22.0%
same,PERCENT CONTROL (ACTUAL),"velvetleaf; Table 8-D, velvetleaf, 24 days, dose 840 g/ha",68.0%
same,PERCENT CONTROL,ryegrass; 420 g/ha,33.3%
same,PERCENT CONTROL,ryegrass; 840 g/ha,66.7%
same,PERCENT CONTROL,Johnsongrass; 420 g/ha,84.2%
same,PERCENT CONTROL,Johnsongrass; 840 g/ha,100.0%
same,PERCENT CONTROL,sicklepod; 420 g/ha,56.7%
same,PERCENT CONTROL,sicklepod; 840 g/ha,100.0%
same,PERCENT CONTROL,morning glory; 420 g/ha,16.7%
same,PERCENT CONTROL,morning glory; 840 g/ha,63.8%
